Reference: US9321722B2, “Bis-indolic derivatives, their uses in particular as antibacterials” (UNIVERSITE JOSEPH FOURIER, priority 2011, dated 2016)
≈ marks a conversion by molar mass, not a printed value.

Columns and labels:
Type in all cases: cell-based
[1] = tested on: Staphylococcus aureus MSSA 476; experiment: MIC, Staphylococcus panel (Table I-2); conditions: 18 h, 4% DMSO
Protocol: (§1) We used the previously described protocol, with subtle modifications. The microdilution method recommended by the Clinical and Laboratory Standard Institute [M07-A9, Vol. 32, N^o 2] was used. The activity of bis-indolic compounds was tested against 35 bacterial strains belonging to 12 different Staphylococcus species.
(§2) Bacterial inocula were prepared in Mueller Hinton broth (MH2, BioMerieux, Marcy L'Etoile, France). They were dispensed in 96 well microtiter plates (5×10^5 CFU/ml of final inoculum, 192 μL per well). Indolic compounds diluted in pure DMSO (8 μL per well, concentrated 25 times) were added to the wells as to obtain two-fold serial concentrations (0.5-32 mg/L of final concentrations). The final concentration of DMSO was 4% in each well.
(§3) To avoid cross-contaminations in microtiter plates, one row was left blank between each strain tested. Microplates were incubated for 18 h at 37° C. in ambient air or at 37° C. in 5% CO2 enriched atmosphere for fastidious species. Then MICs were read visually and, in case of visual reading difficulties, confirmed using a spectrophotometer at a wavelength of 630 nm (BioTek® EL808 Absorbance Microplate Reader). MICs corresponded to the minimum bis-indolic compound concentration that allowed complete visual growth inhibition of bacteria. Drug-free cultures served as growth controls.
(§4) We used four Staphylococcus aureus strains. Two reference strains were provided by the French reference center for Staphylococcus spp. (Lyon, France), including one methicillin-susceptible (MSSA 476) and one methicillin-resistant (MRSA 252) S. aureus strains. The two remaining S. aureus strains were purchased from the CRBIP (Centre de Ressources Biologiques de l'Institut Pasteur): a vancomycin-intermediate strain (ATCC 106414) and a S. aureus strain (SA-1199B) resistant to fluoroquinolones due to overexpression of the NorA multidrug efflux pump.

[2] = tested on: Staphylococcus aureus SA-1199B (NorA); experiment: MIC, Staphylococcus panel (Table I-2); conditions: 18 h
Protocol: as §1, §2, §3, §4

[3] = tested on: Staphylococcus aureus ATCC 106414 (VISA); experiment: MIC, Staphylococcus panel (Table I-2); conditions: 18 h, 4% DMSO
Protocol: as §1, §2, §3, §4

[4] = tested on: Staphylococcus aureus MRSA 252; experiment: MIC, Staphylococcus panel (Table I-2); conditions: 18 h, 4% DMSO
Protocol: as §1, §2, §3, §4

[5] = tested on: HCT116 (human colon tumor); experiment: In vitro cytotoxicity; conditions: HCT-116, HCT116, in DMSO, duplicate
[6] = tested on: Staphylococcus auricularis (CHUG-Saur1); experiment: MIC, Staphylococcus panel (Table I-2); conditions: 18 h, 4% DMSO
Protocol: as §1, §2, §3
(§5) Coagulase-negative Staphylococcus strains included three reference strains purchased from CRBIP: a methicillin-susceptible S. epidermidis strain (ATCC 12228), a methicillin-resistant S. epidermidis strain (ATCC 49461), and a methicillin-susceptible S. sciuri strain (ATCC 29061). We also used clinical strains belonging to the following coagulase-negative Staphylococcus species: S. auricularis (two strains), S. warneri (five strains), S. capitis (five strains), S. haemolyticus (four strains), S. hominis (seven strains), S. cohnii (two strains), and S. saprophyticus, S. caprae and S. simulans (one strain each). Identification of the clinical strains was obtained using VITEK® 2 System (Biomérieux).

[7] = tested on: Staphylococcus caprae (CHUG-Scapra1); experiment: MIC, Staphylococcus panel (Table I-2); conditions: 18 h, 4% DMSO
Protocol: as §1, §2, §3, §5

[8] = tested on: Staphylococcus sciuri ATCC 29061; experiment: MIC, Staphylococcus panel (Table I-2); conditions: Mammaliicoccus sciuri, ATCC29061, 18 h, 4% DMSO
Protocol: as §1, §2, §3, §5

[9] = tested on: Staphylococcus capitis (CHUG-Scap6); experiment: MIC, Staphylococcus panel (Table I-2); conditions: 18 h, 4% DMSO
Protocol: as §1, §2, §3, §5

[10] = tested on: Staphylococcus warneri (CHUG-Swar7); experiment: MIC, Staphylococcus panel (Table I-2); conditions: 18 h, 4% DMSO
Protocol: as §1, §2, §3, §5

[11] = tested on: Staphylococcus capitis (CHUG-Scap7); experiment: MIC, Staphylococcus panel (Table I-2); conditions: 18 h, 4% DMSO
Protocol: as §1, §2, §3, §5

[12] = tested on: Staphylococcus epidermidis ATCC 12228; experiment: MIC, Staphylococcus panel (Table I-2); conditions: ATCC12228, 18 h, 4% DMSO
Protocol: as §1, §2, §3, §5

[13] = tested on: Staphylococcus warneri (CHUG-Swar1); experiment: MIC, Staphylococcus panel (Table I-2); conditions: 18 h, 4% DMSO
Protocol: as §1, §2, §3, §5

[14] = tested on: Staphylococcus auricularis (CHUG-Saur3); experiment: MIC, Staphylococcus panel (Table I-2); conditions: 18 h, 4% DMSO
Protocol: as §1, §2, §3, §5

[15] = tested on: Staphylococcus capitis (CHUG-Scap1); experiment: MIC, Staphylococcus panel (Table I-2); conditions: 18 h, 4% DMSO
Protocol: as §1, §2, §3, §5

[16] = tested on: Staphylococcus hominis (CHUG-Shom7); experiment: MIC, Staphylococcus panel (Table I-2); conditions: 18 h, 4% DMSO
Protocol: as §1, §2, §3, §5

[17] = tested on: Staphylococcus warneri (CHUG-Swar5); experiment: MIC, Staphylococcus panel (Table I-2); conditions: 18 h, 4% DMSO
Protocol: as §1, §2, §3, §5

[18] = tested on: Staphylococcus capitis (CHUG-Scap5); experiment: MIC, Staphylococcus panel (Table I-2); conditions: 18 h, 4% DMSO
Protocol: as §1, §2, §3, §5

[19] = tested on: Staphylococcus hominis (CHUG-Shom4); experiment: MIC, Staphylococcus panel (Table I-2); conditions: 18 h, 4% DMSO
Protocol: as §1, §2, §3, §5

[20] = tested on: Staphylococcus saprophyticus (CHUG-Ssap2); experiment: MIC, Staphylococcus panel (Table I-2); conditions: 18 h, 4% DMSO
Protocol: as §1, §2, §3, §5

[21] = tested on: Staphylococcus hominis (CHUG-Shom3); experiment: MIC, Staphylococcus panel (Table I-2); conditions: 18 h, 4% DMSO
Protocol: as §1, §2, §3, §5

[22] = tested on: Staphylococcus cohnii (CHUG-Scoh2); experiment: MIC, Staphylococcus panel (Table I-2); conditions: 18 h, 4% DMSO
Protocol: as §1, §2, §3, §5

[23] = tested on: Staphylococcus haemolyticus (CHUG-Scap5); experiment: MIC, Staphylococcus panel (Table I-2); conditions: 18 h, 4% DMSO
Protocol: as §1, §2, §3, §5

[24] = tested on: Staphylococcus warneri (CHUG-Swar4); experiment: MIC, Staphylococcus panel (Table I-2); conditions: 18 h, 4% DMSO
Protocol: as §1, §2, §3, §5

[25] = tested on: Staphylococcus hominis (CHUG-Shom1); experiment: MIC, Staphylococcus panel (Table I-2); conditions: 18 h, 4% DMSO
Protocol: as §1, §2, §3, §5

[26] = tested on: Staphylococcus warneri (CHUG-Swar6); experiment: MIC, Staphylococcus panel (Table I-2); conditions: 18 h, 4% DMSO
Protocol: as §1, §2, §3, §5

[27] = tested on: Staphylococcus haemolyticus (CHUG-Shae1); experiment: MIC, Staphylococcus panel (Table I-2); conditions: 18 h, 4% DMSO
Protocol: as §1, §2, §3, §5

[28] = tested on: Staphylococcus haemolyticus (CHUG-Scap6); experiment: MIC, Staphylococcus panel (Table I-2); conditions: 18 h, 4% DMSO
Protocol: as §1, §2, §3, §5

Structure (SMILES) | MIC [1] [µg/mL] | MIC [2] [µg/mL] | MIC [3] [µg/mL] | MIC [4] [µg/mL] | IC50 [5] [µM] | MIC [6] [µg/mL] | MIC [7] [µg/mL] | MIC [8] [µg/mL] | MIC [9] [µg/mL] | MIC [10] [µg/mL] | MIC [11] [µg/mL] | MIC [12] [µg/mL] | MIC [13] [µg/mL] | MIC [14] [µg/mL] | MIC [15] [µg/mL] | MIC [16] [µg/mL] | MIC [17] [µg/mL] | MIC [18] [µg/mL] | MIC [19] [µg/mL] | MIC [20] [µg/mL] | also measured
CC(C)(C)OC(=O)NCC(NC(=O)C(=O)c1c[nH]c2ccc(Br)cc12)c1c[nH]c2ccc(Br)cc12 (centres unmarked) [Compound 4, tert-Butyl(2-(5-bromo-1H-indol-3-yl)-2-(2-(5-bromo-1H-indol-3-yl)-2-oxoacetamido)ethyl) carbamate] | 1 (≈ 1.65 µM) | 1 (≈ 1.65 µM) | 1 (≈ 1.65 µM) | 1 (≈ 1.65 µM) | 4.55 | 1 (≈ 1.65 µM) | 1 (≈ 1.65 µM) | 2 (≈ 3.31 µM) | 1 (≈ 1.65 µM) | 1 (≈ 1.65 µM) | 1 (≈ 1.65 µM) | 1 (≈ 1.65 µM) | 1 (≈ 1.65 µM) | 1 (≈ 1.65 µM) | 1 (≈ 1.65 µM) | 1 (≈ 1.65 µM) | 1 (≈ 1.65 µM) | 1 (≈ 1.65 µM) | 1 (≈ 1.65 µM) | 1 (≈ 1.65 µM) | MIC [21]: 1 µg/mL (≈ 1.65 µM); MIC [22]: 2 µg/mL (≈ 3.31 µM); MIC [23]: 1 µg/mL (≈ 1.65 µM); MIC [24]: 1 µg/mL (≈ 1.65 µM); MIC [25]: 2 µg/mL (≈ 3.31 µM); MIC [26]: 1 µg/mL (≈ 1.65 µM); MIC [27]: 1 µg/mL (≈ 1.65 µM); MIC [28]: 2 µg/mL (≈ 3.31 µM)
CC(NC(=O)C(=O)c1c[nH]c2ccc(Br)cc12)c1c[nH]c2ccc(Br)cc12 (centres unmarked) [Compound 5, 2-(5-Bromo-1H-indol-3-yl)-N-(1-(5-bromo-1H-indol-3-yl)ethyl)-2-oxoacetamide] | 2 (≈ 4.09 µM) | 2 (≈ 4.09 µM) | 1 (≈ 2.04 µM) | 2 (≈ 4.09 µM) | 10.1 | 1 (≈ 2.04 µM) | 2 (≈ 4.09 µM) | 4 (≈ 8.18 µM) | 1 (≈ 2.04 µM) | 2 (≈ 4.09 µM) | 2 (≈ 4.09 µM) | 2 (≈ 4.09 µM) | 2 (≈ 4.09 µM) | 1 (≈ 2.04 µM) | 2 (≈ 4.09 µM) | 2 (≈ 4.09 µM) | 1 (≈ 2.04 µM) | 2 (≈ 4.09 µM) | 2 (≈ 4.09 µM) | 2 (≈ 4.09 µM) | MIC [21]: 2 µg/mL (≈ 4.09 µM); MIC [22]: 2 µg/mL (≈ 4.09 µM); MIC [23]: 4 µg/mL (≈ 8.18 µM); MIC [24]: 2 µg/mL (≈ 4.09 µM); MIC [25]: 4 µg/mL (≈ 8.18 µM); MIC [26]: 2 µg/mL (≈ 4.09 µM); MIC [27]: 4 µg/mL (≈ 8.18 µM); MIC [28]: 4 µg/mL (≈ 8.18 µM)
